Reference: patent US8105636B2, “Compositions and methods for treating inflammation and inflammation-related disorders by Plectranthus amboinicus extracts” (Academia Sinica, priority 2007, dated 2012)
Like-named read-outs stand apart in the source and are kept apart here.

Key:
AP-1 = target: T1, AP-1 (Homo sapiens, UniProt P01100+P05412); experiment: AP-1 inhibition assay (ELISA), AP-1 binding to AP-1 recognition sequence
T1 construct: (Histidine)6; Strep-tag; made in house; host or cells: bacterial cells harboring pFos-Jun
Experimental: To test the effect of the compounds of the present disclosure on AP-1 binding activity to AP-1 recognition sequence, ELISA experiments were performed.
According to implementations, binding assays were developed to identify inhibitors that block the AP-1 DNA binding activities. Traditional methods call for the preparation of nuclear extracts from TPA-stimulated cells, or require separate purification of Fos and Jun followed with in vitro dimerization to form a functional AP-1 complexes. A bicistronic expression vector that can drive the expression of two genes in one plasmid was thus designed as shown in FIG. 7. In this system, a promoter would directly drive the expression of the first gene, which is connected to the second gene via a ribosome-binding site in order to confer the expression of the second genes. Any pair of genes that form heterodimer in the cells for their physiological functions can be potentially expressed as complexes in the cells using this system.
According to implementations, the expression system of FIG. 7 was used to co-express AP-1 complexes. Accordingly, Fos (as gene 1) was tagged with a (Histidine)6 tag and Jun (as Gene 2) was tagged with Strep-tag as illustrated in FIG. 8A. […] Cross-linking experiments further confirmed the Fos-Jun complexes are dimers (FIG. 8C).
The crude extracts containing or the purified proteins were used for ELISA-based and fluorescence anisotropy-based binding analysis. Labeled oligonucleotides containing one or more copies of AP-1 consensus binding sites were used in the binding assays. Biotin-labeled oligonucleotides were used to coat streptavidin-plates in ELISA-binding assays. Rhodamine or fluorescein or other fluorophores-labeled oligonucleotides were used for fluorescence anisotropy analysis.

[1] = tested on: AP-1 transcription factors; experiment: ELISA-based AP-1/DNA binding assay with nuclear extracts from TPA-activated HeLa or K562 cells; conditions: fractions of PA crude extract from preparative C18 HPLC; FIG. 4
Experimental: According to implementations of experimental data shown in FIG. 5, oligonucleotide containing AP-1 binding sites were incubated nuclear extracts from TPA-stimulated K562 (K562) or HeLa (HeLa) cells. The antibodies to AP-1 complexes were added followed with horseradish peroxidase-labeled secondary antibody for ELISA-based analysis. AP-1 binding activity in the nuclear extract from TPA-stimulated cells was defined as 100% and the AP-1 binding activity of buffer only was defined as 0%.
According to implementations of experimental data shown in FIG. 6, AP-1 complexes can be formed by different proteins such as C-Jun, JunB, JunD, c-Fos, Fos-B, Fra-1 or Fra-2.
Due to the involvement of AP-1 activity in inflammatory signaling, the effects of the PA crude extract on AP-1/DNA binding activity was examined. […] The nuclear extract prepared from TPA-activated HeLa or K562 cells were used as AP-1 protein sources. After incubating with the oligonucleotides containing AP-1 binding sites, the AP-1/DNA complexes were detected with HRP-conjugated anti-c-Fos antibodies.
The PA crude extract was further fractionated with preparative HPLC using C18 column. […] This fraction was further purified by employing another C18 column using the solvent gradient from 2% acetonitrile to 90% acetonitrile containing 0.1% trifluoreoacetic acid. […]

[2] = tested on: Human umbilical vein endothelial (HUVEC) cells; experiment: LPS-induced cytokine/chemokine expression in HUVEC cells (Luminex); type: cell-based; set-up: unit not given here; conditions: HUVEC cells incubated with LPS, PA crude extract 1 mg/ml
Experimental: Human umbilical vein endothelial (HUVEC) cells were incubated with LPS in the absence or presence of 1 mg/ml crude extract of PA. The cytokine expression profile was determined using Luminex.

[3] = ELISA, AP-1 binding activity to AP-1 recognition sequence, read-out: IC50 (AP-1 inhibition assay)

T1 sequence (P01100 whole entry): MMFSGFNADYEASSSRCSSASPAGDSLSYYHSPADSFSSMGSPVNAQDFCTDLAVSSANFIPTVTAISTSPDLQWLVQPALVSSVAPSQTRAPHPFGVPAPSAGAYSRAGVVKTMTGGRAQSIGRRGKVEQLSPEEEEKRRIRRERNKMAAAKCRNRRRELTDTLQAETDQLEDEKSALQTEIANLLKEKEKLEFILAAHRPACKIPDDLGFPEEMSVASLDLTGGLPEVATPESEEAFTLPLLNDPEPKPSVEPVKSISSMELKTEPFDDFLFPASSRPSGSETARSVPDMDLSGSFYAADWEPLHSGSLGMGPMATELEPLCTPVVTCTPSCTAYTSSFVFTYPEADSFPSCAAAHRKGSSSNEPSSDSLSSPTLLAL
T1 sequence (P05412 whole entry): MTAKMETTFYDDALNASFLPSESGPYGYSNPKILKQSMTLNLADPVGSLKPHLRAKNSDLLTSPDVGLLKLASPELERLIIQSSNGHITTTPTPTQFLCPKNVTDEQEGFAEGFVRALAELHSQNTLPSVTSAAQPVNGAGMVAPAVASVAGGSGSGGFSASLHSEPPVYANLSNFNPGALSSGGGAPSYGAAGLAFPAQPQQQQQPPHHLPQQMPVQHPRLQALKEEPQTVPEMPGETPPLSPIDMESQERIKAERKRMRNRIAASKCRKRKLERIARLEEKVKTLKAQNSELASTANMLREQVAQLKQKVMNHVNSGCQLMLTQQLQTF

O=C(O)/C(=C\c1ccc(O)c(O)c1)C(c1ccc(O)c(O)c1)C(O)C(=O)O (single isomer, unassigned) [Mena 987 (1)] gave an IC50 (AP-1; [3]) of 4.3 ± 2.6 µM.

With O=C(/C=C/c1ccc(O)c(O)c1)NC[C@@H](O)C(=O)Oc1cccc(O)c1O [CHM9102] the “Inhibitory effects against AP-1 binding of HPLC fractions and isolated components (in words)” value [1] was “inhibitory effects”.

In the case of COC(=O)C(Cc1ccc(O)c(O)c1)NC(=O)/C=C/c1ccc(O)c(O)c1 (stereo not drawn) [Compound 5], the IC50 (AP-1; [3]) is reported as 39 ± 31 µM.

Molecule CCOC(=O)[C@H](Cc1ccc(O)c(O)c1)NC(=O)/C=C/c1ccc(O)c(O)c1 [Compound 6] has an IC50 (AP-1; [3]) of 32.5 ± 24 µM.

O=C(/C=C/c1ccc(O)c(O)c1)N[C@@H](Cc1ccc(O)c(O)c1)C(=O)O [Compound 7] showed an IC50 (AP-1; [3]) of 9.2 ± 3.2 µM.

O=C(/C=C/c1ccc(O)c(O)c1)NCCc1ccc(O)c(O)c1 [Compound 8] was tested, and the IC50 (AP-1; [3]) was 12.9 ± 5.9 µM.

Work on CCOP(=O)(OCC)C(Cc1ccc(O)c(O)c1)NC(=O)/C=C/c1ccc(O)c(O)c1 (stereo not drawn) [Compound 9] yielded an IC50 (AP-1) of 26.2 ± 18.9 µM.

CCOC(=O)C(Cc1ccc(O)c(O)c1)OC(=O)/C=C/c1ccc(O)c(O)c1 (stereo not drawn) [Compound 10] gave an IC50 (AP-1; [3]) of 5.6 ± 4.2 µM.

Molecule O=C(/C=C/c1cc(O)c(O)cc1[N+](=O)[O-])OC(Cc1cc(O)c(O)cc1[N+](=O)[O-])C(=O)O (stereo not drawn) [Compound 11] has an IC50 (AP-1; [3]) of 21.3 ± 24 µM.

COC(=O)C(Cc1ccc(O)c(O)c1)NC(=O)[C@H](Cc1ccc(O)c(O)c1)OC(=O)/C=C/c1ccc(O)c(O)c1 (stereo partly drawn) [Compound 13] was tested, and the IC50 (AP-1; [3]) was 0.8 ± 0.8 µM.

With CCOC(=O)C(Cc1ccc(O)c(O)c1)NC(=O)[C@H](Cc1ccc(O)c(O)c1)OC(=O)/C=C/c1ccc(O)c(O)c1 (stereo partly drawn) [Compound 14] the IC50 (AP-1; [3]) was 1.2 ± 0.8 µM.

Molecule O=C(O)CC(NC(=O)C(Cc1ccc(O)c(O)c1)OC(=O)C=Cc1ccc(O)c(O)c1)C(=O)O (stereo not drawn) [Compound 15] has an IC50 (AP-1; [3]) of 34.7 ± 21.3 µM.

For COC(=O)C(Cc1ccc(O)c(O)c1)NC(=O)C(Cc1cc(O)c(O)cc1[N+](=O)[O-])OC(=O)C=Cc1ccc(O)c(O)c1 (stereo not drawn) [Compound 16], the IC50 (AP-1; [3]) was 21.3 ± 24 µM.

COC(=O)C(Cc1c[nH]c2ccccc12)NC(=O)C(Cc1ccc(O)c(O)c1)OC(=O)C=Cc1ccc(O)c(O)c1 (stereo not drawn) [Compound 17] was tested, and the IC50 (AP-1; [3]) was 43.4 ± 28.2 µM.

With O=C(C=Cc1ccc(O)c(O)c1)OC(Cc1ccc(O)c(O)c1)C(=O)NC(Cc1c[nH]c2ccccc12)C(=O)O (stereo not drawn) [Compound 18] the IC50 (AP-1; [3]) was 31.9 ± 20 µM.

With COC(=O)C(Cc1ccc(O)c(O)c1)NC(=O)C(Cc1ccc(O)c(O)c1)NC(=O)C=Cc1ccc(O)c(O)c1 (stereo not drawn) [Compound 19] the IC50 (AP-1; [3]) was 8 ± 4.7 µM.

O=C(C=Cc1ccc(O)c(O)c1)NC(Cc1ccc(O)c(O)c1)C(=O)NC(Cc1ccc(O)c(O)c1)C(=O)O (stereo not drawn) [Compound 20] showed an IC50 (AP-1; [3]) of 3.5 ± 2 µM.

COc1ccc2c(c1)c(CC(=O)O)c(C)n2C(=O)c1ccc(Cl)cc1 [Indomethacin] gave an Eotaxin expression [2] of 29.1, a GM-CSF expression [2] of 220 and an IFNg expression [2] of 2.41. The IL-1a expression [2] was 13.8, the IL-1b expression [2] was 11.7 and the IL-2 expression [2] was 10.1. The IL-3 expression [2] was 8.82, the IL-4 expression [2] was 11.8 and the IL-5 expression [2] was 1.24. It also gave an IL-6 expression [2] of 62300, an IL-7 expression [2] of 51.5 and an IL-8 expression [2] of 8030. For the same molecule, the IL-10 expression [2] was 1.12, the “IL-12 (p40) expression” value [2] was 16.4 and the “IL-12 (p70) expression” value [2] was 6.43. For the same molecule, the IL-13 expression [2] was 11.1, the IL-15 expression [2] was 13.4 and the IP-10 expression [2] was 24.5. For the same molecule, the MCP-1 expression [2] was 41800, the MIP-la expression [2] was 7.57 and the RANTES expression [2] was 5.48. It also gave a TNFa expression [2] of 8.14.

With O=C(OC(Cc1ccc(O)c(O)c1)C(=O)O)C1=Cc2ccc(O)c(O)c2C(C(=O)OC(Cc2ccc(O)c(O)c2)C(=O)O)C1c1ccc(O)c(O)c1 (stereo not drawn) [Mena 9102 (3)] the IC50 (AP-1; [3]) was 1.4 ± 0.9 µM.

In the case of O=C(/C=C/c1ccc(O)c(O)c1)O[C@H](Cc1ccc(O)c(O)c1)C(=O)O [rosmarinic acid (4), rosmarinic acid], the “Inhibitory effects against AP-1 binding of HPLC fractions and isolated components (in words)” value [1] is reported as “inhibitory effects” and the IC50 (AP-1; [3]) is reported as 10 ± 4.1 µM.
